Here are results for 1 compound from US20250090441A1, “ANTI-CARIES PEPTIDES WITH ANTIMICROBIAL AND REMINERALIZING PROPERTIES AND METHODS THEREOF” (THE UNIVERSITY OF HONG KONG, priority 2023, published 2025).

Converted amounts (≈) assume the structure as drawn. Where a SMILES comes first, the peptide text is derived from it.

Data set [1] concerns Actinobacillus actinomycetemcomitans ATCC 29523. The class given is cell-based. Here is the method:
(§1) Common oral pathogenic bacterial strains were selected for this study. Streptococcus mutans ATCC 35668, Streptococcus sobrinus ATCC 33478, Lactobacillus acidophilus ATCC 9224, Lactobacillus rhamnosus ATCC10863, Actinomyces naeslundii ATCC 12104, Enterococcus faecalis ATCC 29212, Porphyromonas gingivalis ATCC 33277, and Actinobacillus actinomycetemcomitans ATCC 29523. All the strains were cultured anaerobically.
(§2) Brain heart infusion (BHI) medium was used for culture of S. mutans, S. sobrinus, L. acidophilus, L. rhamnosus, A. naeslundii, E. faecalis, and A. actinomycetemcomitans, whereas p.g. broth was used for culture of Porphyromonas gingivalis. The standard dilution method in a 96-well microplate was conducted in order to evaluate the antimicrobial efficacy of GAPI. Each well was filled with […] GAPI dilutions. In addition, serial twofold dilutions in concentrations ranging from 1280 μM to 1.25 μM were prepared. A 10 μL bacterial culture (10^6 CFU/mL) was added. Chlorhexidine was used as positive control, and medium was used as negative control. The plates were then anaerobically incubated at 37° C. for 24 h. The absorbance was measured at a wavelength of 660 nm in order to analyze the growth of microorganisms. […] The MBC endpoint was the lowest concentration at which 99.9% of the bacterial population was killed, which thus means the absence of bacteria. The morphology of the bacteria and fungi treated with synthesized peptides was analysed using transmission electron microscopy (TEM) (Philips CM100, Philips/FEI Corporation, Eindhoven, Holland). The sample was prepared following a previous study (Niu et al. 2021d). Copper grids were used to contain the semi-thin sections of bacteria/fungi for examination.

For data set [2], the system named is Lactobacillus acidophilus ATCC 9224. The class given is cell-based. Here is the method:
as §1, §2

For data set [3], the system named is Lactobacillus rhamnosus ATCC10863. The class given is cell-based. As for the experimental part: as §1, §2
In data set [4] the test system is Porphyromonas gingivalis ATCC 33277. The class given is cell-based. Here is the method: as §1, §2
Data set [5] has as its system Streptococcus mutans ATCC 35668. The class given is cell-based. As for the experimental part:
as §1, §2

Data set [6] can be described thus: Stability in human saliva (HPLC). It counts as in vitro ADME. As for the experimental part: The stability of peptides in human saliva was investigated by testing the remaining peptide concentration via HPLC system (Waters Pacific Pte Ltd, Singapore). The saliva with peptides was mixed and incubated for 0, 15, 30, 45 and 60 min. The test was processed following a previous experimental protocol (Huang et al. 2016).

Data set [7] concerns Candida albicans in multiple-species cariogenic biofilm. The data set is described as follows: Multiple-species cariogenic biofilm, PMA-qPCR. It counts as cell-based. As to conditions: three-species biofilm treated with GAPI, n=6 per group. As for the experimental part: (§3) A multiple-species cariogenic biofilm consisting of Streptococcus mutans, Lacticaseibacillus casei and Candida albicans was cultured to assess the anti-biofilm properties of GAPI. The culture medium was modified-artificial saliva as described in a previous protocol (Yassin et al. 2016). The biofilm was cultured on glass slides in 24-well plates with 1×10^7 Streptococcus mutans, 1×10^7 Lacticaseibacillus casei and 1×10^5 Candida albicans for 48 h. The biofilm was then treated with GAPI. The biofilm with no treatment was the negative control. After another 48-h incubation, the biofilm was collected for sequent assessments. The architecture of the multiple-species biofilm was assessed using scanning electron microscopy (SEM) and confocal laser scanning microscopy (CLSM). The sample was prepared with our published protocol (Niu et al. 2021d). The growth kinetics of the multiple-species biofilm were analyzed using propidium monoazide-quantitative polymerase chain reaction (PMA-qPCR) (Loozen et al. 2011). Biofilm was suspended in phosphate-buffered solution. The suspension was treated with propidium monoazide (PMA) (Biotium, San Francisco, USA) and exposed to halogen light photoactivation (PMA-Lite™, Biotium, San Francisco, USA). The brightness (luminosity) of the light device is 600-800 millicandela and its wavelength is 465-475 nm. Then deoxyribonucleic acid (DNA) was extracted from PMA-treated biofilm suspension using QIAamp DNA Mini Kit (QIAGEN, Dusseldorf, Germany). The oligonucleotide primers and TaqMan probes were used to quantify multiple-species cariogenic biofilm species: SMUT-forward(F), SMUT-reverse(R) and SMUT-probe(P) for Streptococcus mutans, Lc-F, Lc-R, Lc-P for Lactobacillus casei and Ca—F, Ca—R and Ca-P for Candida albicans […]. […]
(§4) Biofilm was suspended in phosphate-buffered solution. […] The oligonucleotide primers and TaqMan probes were used to quantify multiple-species cariogenic biofilm species: SMUT-forward(F), SMUT-reverse(R) and SMUT-probe(P) for Streptococcus mutans, Lc-F, Lc-R, Lc-P for Lactobacillus casei and Ca—F, Ca—R and Ca-P for Candida albicans (Table 3). […]

Data set [8] has as its system Lacticaseibacillus casei in multiple-species cariogenic biofilm. The data set is described as follows: Multiple-species cariogenic biofilm, PMA-qPCR. The class given is cell-based. The following applies: three-species biofilm treated with GAPI, n=6 per group. Here is the method:
as §3, §4

Data set [9] relates to Streptococcus mutans in multiple-species cariogenic biofilm. The data set is described as follows: Multiple-species cariogenic biofilm, PMA-qPCR. It counts as cell-based. The following applies: three-species biofilm treated with GAPI, n=6 per group. Here is the method:
as §3, §4
(In general: Quantitative PCR measures a nucleic acid by following its amplification.)

For `CC(C)[C@@H]1NC(=O)[C@H](CCCN=C(N)N)NC(=O)[C@H](Cc2ccccc2)NC(=O)[C@@H](NC(=O)[C@H](Cc2c[nH]c3ccccc23)NC(=O)[C@H](CCCN=C(N)N)NC(=O)[C@H](CCCN=C(N)N)NC(=O)c2cc(O)c(O)c(O)c2)CSSC[C@@H](C(=O)N[C@@H](CCCN=C(N)N)C(=O)O)NC(=O)[C@H](CCCCN)NC(=O)[C@H](CCCN=C(N)N)NC(=O)[C@H](Cc2ccc(O)cc2)NC(=O)[C@@H]2CSSC[C@H](NC1=O)C(=O)N[C@@H](Cc1ccc(O)cc1)C(=O)N[C@@H](CCCN=C(N)N)C(=O)NCC(=O)N[C@@H](Cc1ccccc1)C(=O)N2` [GAPI, Gallic-Acid-Polyphemusin-I] (HELM PEPTIDE1{[O=C(c1cc(O)c(O)c(O)c1)[*:2]].R.R.W.C.F.R.V.C.Y.R.G.F.C.Y.R.K.C.R}$PEPTIDE1,PEPTIDE1,5:R3-18:R3|PEPTIDE1,PEPTIDE1,9:R3-14:R3$$$V2.0), the MBC in [1] (ATCC 29523) worked out at 320 µM (≈ 834 µg/mL); in data set [2] (ATCC 9224), 80 µM (≈ 209 µg/mL); in data set [3] (ATCC 10863), 160 µM (≈ 417 µg/mL); in data set [4] (ATCC 33277), 640 µM (≈ 1670 µg/mL); in data set [5] (ATCC 35668), 160 µM (≈ 417 µg/mL). In addition, the MIC in data set [1] (ATCC 29523, anaerobic, 24 h) is 160 µM (≈ 417 µg/mL); in [2] (ATCC 9224, anaerobic, 24 h), 40 µM (≈ 104 µg/mL); in data set [3] (ATCC 10863, anaerobic, 24 h) it was 20 µM (≈ 52.1 µg/mL); in data set [4] (ATCC 33277, anaerobic, 24 h), 320 µM (≈ 834 µg/mL); in [5] (ATCC 35668, anaerobic, 24 h), 80 µM (≈ 209 µg/mL). For the same compound, the “stable in saliva (time)” value in [6] is “at least 60 min”. Besides, the fraction remaining at 0.25 h in [6] (human, 15 min, read-out: remaining percentage after incubation in human saliva) is 98.9%. For the same compound, the fraction remaining at 0.5 h in [6] (human, 30 min, read-out: remaining percentage after incubation in human saliva) was determined as 98.6%. Moreover, in data set [6] (human, 45 min, read-out: remaining percentage after incubation in human saliva), the fraction remaining at 0.75 h is 96.8%. The share remaining at 1 h in data set [6] (human, 60 min, read-out: remaining percentage after incubation in human saliva) amounted to 94.4%. Further, the “log 10 cell counts of Candida albicans” value in [7] was 6.63±0.55. Further, the “log 10 cell counts of Lacticaseibacillus casei” value in data set [8] is listed as 7.33±0.38. The “log 10 cell counts of Streptococcus mutans” value in data set [9] was 6.05±0.37.

Usually MBC stands for the lowest tested concentration that kills the bacteria rather than only halting them. A high value points to weaker bactericidal potency. Broadly, the MIC is the lowest concentration found to suppress growth. A high value points to a less susceptible organism. A word on the amount remaining: it is what is left of the initial amount, in per cent.
